Experimental data from patent US7829526B2, “Cardioinhibitory/antihypertensive novel endogenous physiologically active peptide” (Japan Science and Technology Agency, priority 2004, dated 2010).

Key:
[1] = Cardioinhibitory or hypotensive activity of deletion variants and homologue (method not described); conditions: variants of SEQ ID No: 2
intact-rats = assay: Effect of synthesized peptide on intact anesthetized rats (blood pressure, heart rate, aortic flow); type: in vivo, rat; conditions: for hypotensive effect: anesthetized SD rats, synthetic peptide 10 nmol/kg intravenously
Experimental: Meanwhile, a peptide of the present invention consisting of the amino acid sequence shown by SEQ ID No: 2 determined in Example 1, was synthesized with the use of a peptide synthesizer (Shimadzu, PSSM-8), and tested in the following experiment. SD rats weighing 400 to 525 g were used as test animals.
SD rats were anesthetized by intraperitoneal pentobarbital sodium (50 mg/kg), and a synthesized peptide was administered intravenously via a catheter placed in the […]. Heart rates and blood pressure were measured according to a method described previously (Nat Med 9: 1166-72, 2003) with the use of an electromagnetic flowmeter (MFV-1100, Nihon Koden). Further, a flowmeter was attached to the abdominal aorta, and aortic flow was measured according to the above method described previously. Synthetic peptides (10 nmol/kg) were administered intravenously over a period of 15 seconds or more, and systolic pressure (SP), diastolic pressure (DP) mean aortic pressure (MAP), heart rate (HR) were measured. A hypotensive effect of a synthetic peptide of the present invention was observed.

[2] = test system: isolated, perfused rat hearts; assay: Isolated heart working model (isolated perfused rat heart); conditions: for cardiac contractility (inotropism): rat hearts, direct action on heart
Experimental: Isolated heart working model was used for estimating direct effect on cardiac muscle, according to a method described previously (Nat Med 9:[…], 2003). A heart isolated from a rat was set on an isolated heart perfusion apparatus (Primetech Corporation, IPH-W2) which was perfused with a Krebs Henseleit Buffer at 37° C., and stabilized. Subsequently, synthetic peptides were administered (10^−8 mol/l). Then, HR, SP, DP, MAP and aortic flow (AF) were measured over a period of 15 min. Coronary flow (CF) was measured by collecting coronary sinus effluent before and at 5 and 10 min after administering the peptide agent. Based on the obtained data, cardiac output (CO) was calculated by adding AF and CF, whereas stroke volume (SV) was obtained by dividing CO by HR, and then normalized by the heart volume of each rat.

[3] = test system: isolated rat aortic preparation; conditions: intact and endothelium-detached preparations, unconstricted or constricted with phenylephrine; cited from earlier work
SD rats = conditions: cited from earlier work; for hypotensive and bradycardiac effects: 1 min after intravenous administration, SD rats under pentobarbital anesthesia; for dose dependence of hypotensive and bradycardiac effects: salusin-α 1-10 nmol/kg, salusin-β 0.1-1 nmol/kg
[4] = intravenous administration into anesthetized rats

| Substance | cardioinhibitory activity or hypotensive activity [1] | direct effect on isolated rat aorta [3] | hypotensive and bradycardiac effects (SD rats) | hypotensive effects after pretreatment with NO synthase inhibitor L-NAME (SD rats) | dose dependence of hypotensive and bradycardiac effects (SD rats) | other results |
| --- | --- | --- | --- | --- | --- | --- |
| (1-20): SEQ ID No: 2 wherein 4 amino acids at C-terminal end are deleted (AIFIFISNTGGKQINQVALE; listed as Homo sapiens) | potent cardioinhibitory activity or hypotensive activity is maintained | – | – | – | – | – |
| (2-13): SEQ ID No: 2 wherein 11 amino acids at C-terminal end and 1 amino acid at N-terminal end are deleted (IFIFISNTGGKQ; listed as Homo sapiens) | the activity is somewhat decreased | – | – | – | – | – |
| (5-24): SEQ ID No: 2 wherein 4 amino acids at N terminal end are deleted (FISNTGGKQINQVALEAWRS; listed as Homo sapiens) | potent cardioinhibitory activity or hypotensive activity is maintained | – | – | – | – | – |
| AIFIFISNTGGKQINQVALEAWRS (listed as Homo sapiens) [peptide of the present invention, human-derived 24 amino acid peptide translated from TOR2A mRNA] | – | – | – | – | – | hypotensive effect (intact-rats; FIG. 1, listed as This peptide): significant hypotensive activity; hypotensive effect (intact-rats; FIG. 1, listed as synthetic peptide of the present invention): observed; aortic blood flow (intact-rats; [4]): reduced; heart rates (intact-rats; [4]): reduced; aortic pressure (intact-rats; intravenous administration into anesthetized rats, FIG. 1): marked lowering; negative inotropic and chronotropic effects (intact-rats; rank among endogenous peptides, FIG. 2): most potent endogenous peptide identified thus far; coronary flow ([2]; isolated rat heart, peptide 10^−8 mol/l, before and at 5 and 10 min, FIG. 2): lowering coronary flow; cardiac contractility (inotropism) [2]: potently reduce cardiac contractility; cardiac contractility (inotropism) ([2]; listed as This peptide): negative inotropism |
| salusin-α: related peptide of 28 amino acids biosynthesized by processing of preprosalusin (SGALPPAPAAPRPALRAQRAGPAGPGAK; salusin-alpha) | – | did not show any direct effect | rapid hypotensive and bradycardiac effects | not affected | dose-responsive | – |
| salusin-β: related peptide of 20 amino acids biosynthesized by processing of preprosalusin (AIFIFIRWLLKLGHHGRAPP; salusin-beta) | – | did not show any direct effect | rapid hypotensive and bradycardiac effects | not affected | dose-responsive | potency compared to salusin-α (SD rats; hypotensive and bradycardiac effects): approximately 10 fold |
